Earlier results in patent US20070282422A1, “Medical devices and methods for local delivery of elastin-stabilizing compounds” (Cook Incorporated, priority 2006, published 2007).

Columns and labels:
aortic elastin = conditions: lyophilized aortic elastin strips in buffered solutions of 0.3%-0.8% tannic acid
[1] = system: elastin in ascending porcine aorta; conditions: tannic concentrations of about 0.3%

**Q.** Which “reduced the susceptibility of the elastin towards elastase” value (aortic elastin) does the source give for Tannic acid here?
**A.** about 50%

**Q.** And the elastin stabilization [1]?
**A.** elastin stabilization
